{"source": "ChEMBL document CHEMBL3044870", "about": "“Effect of clomazone on various market classes of dry beans” (Crop Prot, 2007)", "format_in_all_cases": "organism-based", "conditions_in_all_cases": "in vivo, other", "key": {"Phaseolus vulgaris [1]": {"tested_on": "Phaseolus vulgaris", "test": "Phytotoxicity against Phaseolus vulgaris (cranberry beans) assessed as visual crop injury at 2232 g a.i./ha applied pre-emergence 1 to 2 days post-planting measured on day 14 post-emergence relative to control"}, "Phaseolus vulgaris [2]": {"tested_on": "Phaseolus vulgaris", "test": "Phytotoxicity against Phaseolus vulgaris (dry beans) assessed as visual crop injury at 1116 g a.i./ha applied pre-emergence 1 to 2 days post-planting measured on day 7 post-emergence relative to control"}, "Phaseolus vulgaris [3]": {"tested_on": "Phaseolus vulgaris", "test": "Phytotoxicity against Phaseolus vulgaris (yellow eye beans) assessed as yield at 2232 g a.i./ha applied pre-emergence 1 to 2 days post-planting measured on day 42 post-emergence (reference value: 2.3 tons/ha)"}, "Phaseolus vulgaris [4]": {"tested_on": "Phaseolus vulgaris", "test": "Phytotoxicity against Phaseolus vulgaris (black beans) assessed as yield at 1116 g a.i./ha applied pre-emergence 1 to 2 days post-planting measured on day 42 post-emergence (reference value: 3.6 tons/ha)"}, "Phaseolus vulgaris [5]": {"tested_on": "Phaseolus vulgaris", "test": "Phytotoxicity against Phaseolus vulgaris (kidney beans) assessed as shoot dry weight at 1116 g a.i./ha applied pre-emergence 1 to 2 days post-planting measured on day 42 post-emergence (reference value: 145 g/m)"}, "Phaseolus vulgaris [6]": {"tested_on": "Phaseolus vulgaris", "test": "Phytotoxicity against Phaseolus vulgaris (brown beans) assessed as shoot dry weight at 2232 g a.i./ha applied pre-emergence 1 to 2 days post-planting measured on day 42 post-emergence (reference value: 149 g/m)"}, "Phaseolus vulgaris [7]": {"tested_on": "Phaseolus vulgaris", "test": "Phytotoxicity against Phaseolus vulgaris (black beans) assessed as shoot dry weight at 2232 g a.i./ha applied pre-emergence 1 to 2 days post-planting measured on day 42 post-emergence (reference value: 165 g/m)"}, "Phaseolus vulgaris [8]": {"tested_on": "Phaseolus vulgaris", "test": "Phytotoxicity against Phaseolus vulgaris (white beans) assessed as plant height at 1116 g a.i./ha applied pre-emergence 1 to 2 days post-planting measured on day 28 post-emergence (reference value: 36 cm)"}}, "data": [{"smiles": "CC1(C)CON(Cc2ccccc2Cl)C1=O", "note": "[CLOMAZONE]", "values": [{"measurement": "Activity", "setting": "Phaseolus vulgaris [1]", "result": 14, "unit": "%"}, {"measurement": "Activity", "setting": "Phaseolus vulgaris [2]", "result": 5, "unit": "%"}, {"measurement": "Crop_yield", "setting": "Phaseolus vulgaris [3]", "result": 2.5, "unit": "tons/ha"}, {"measurement": "Crop_yield", "setting": "Phaseolus vulgaris [4]", "result": 3.3, "unit": "tons/ha"}, {"measurement": "Activity", "setting": "Phaseolus vulgaris [5]", "result": 142, "unit": "g/m"}, {"measurement": "Activity", "setting": "Phaseolus vulgaris [6]", "result": 143, "unit": "g/m"}, {"measurement": "Activity", "setting": "Phaseolus vulgaris [7]", "result": 150, "unit": "g/m"}, {"measurement": "Activity", "setting": "Phaseolus vulgaris [8]", "result": 34, "unit": "cm"}]}]}
